Assay [1] has as its target Kappa-type opioid receptor (Homo sapiens, UniProt P41145). The experiment in a line: DRUGMATRIX: Opiate kappa (OP2, KOP) radioligand binding (ligand: [3H] Diprenorphine). Type of assay: cell membranes, HEK293, Membrane. The following applies: hek293; Not Active = under 50% inhibition at 10 µM.
Assay [2] concerns the target Delta-type opioid receptor (Homo sapiens, UniProt P41143). Type of assay: cell membranes, HEK293, Membrane. The following applies: hek293. Also: in other assays of this panel Not Active means under 50% inhibition at 10 µM.
Assay [3] has as its target Substance-P receptor (Homo sapiens, UniProt P25103). Type of assay: cell membranes, CHO, Membrane. As to conditions: cho. Also: in other assays of this panel Not Active means under 50% inhibition at 10 µM.
Assay [4] deals with T1, Amine oxidase [flavin-containing] A (Homo sapiens, UniProt P21397).
T1 sequence (P21397 whole entry): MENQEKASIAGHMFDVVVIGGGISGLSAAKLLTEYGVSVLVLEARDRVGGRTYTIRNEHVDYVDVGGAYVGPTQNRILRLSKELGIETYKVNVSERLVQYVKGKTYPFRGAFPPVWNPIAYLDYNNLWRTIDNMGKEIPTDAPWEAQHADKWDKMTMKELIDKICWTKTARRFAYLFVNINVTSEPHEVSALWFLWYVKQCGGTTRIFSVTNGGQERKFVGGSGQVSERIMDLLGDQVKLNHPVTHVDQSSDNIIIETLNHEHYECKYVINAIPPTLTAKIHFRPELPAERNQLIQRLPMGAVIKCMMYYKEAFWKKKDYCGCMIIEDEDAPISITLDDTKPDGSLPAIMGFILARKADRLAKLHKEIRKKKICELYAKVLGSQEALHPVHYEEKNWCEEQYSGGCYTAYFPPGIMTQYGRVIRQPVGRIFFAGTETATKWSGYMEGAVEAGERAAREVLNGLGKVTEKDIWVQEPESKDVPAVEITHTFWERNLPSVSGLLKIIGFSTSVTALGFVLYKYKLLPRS
The experiment in a line: DRUGMATRIX: Monoamine Oxidase MAO-A enzyme inhibition (substrate: Kynuramine). More on the design: species or system BTI-TN-5B1-4. As to conditions: bti-tn-5b1-4; Not Active = under 50% inhibition at 10 µM.

A short description of assay [5]: DRUGMATRIX: Calcium Channel Type L, Dihydropyridine radioligand binding (ligand: [3H] Nitrendipine). Type of assay: cell membranes, Rattus norvegicus, Wistar, Cerebral cortex, Membrane. As to conditions: Not Active = under 50% inhibition at 10 µM.
Assay [6] can be described thus: DRUGMATRIX: Leukotriene, BLT (LTB4) radioligand binding (ligand: [3H]LTB4). It counts as cell membranes, Membrane. As to conditions: u-937; Not Active = under 50% inhibition at 10 µM.
A short description of assay [7]: DRUGMATRIX: Phosphodiesterase PDE4 enzyme inhibition (substrate: [3H]cAMP + cAMP). As to conditions: u-937; Not Active = under 50% inhibition at 10 µM.
The target in assay [8] is T2, C-X-C chemokine receptor type 2 (Homo sapiens, UniProt P25025). Also: in other assays of this panel Not Active means under 50% inhibition at 10 µM.
T2 sequence (P25025 whole entry): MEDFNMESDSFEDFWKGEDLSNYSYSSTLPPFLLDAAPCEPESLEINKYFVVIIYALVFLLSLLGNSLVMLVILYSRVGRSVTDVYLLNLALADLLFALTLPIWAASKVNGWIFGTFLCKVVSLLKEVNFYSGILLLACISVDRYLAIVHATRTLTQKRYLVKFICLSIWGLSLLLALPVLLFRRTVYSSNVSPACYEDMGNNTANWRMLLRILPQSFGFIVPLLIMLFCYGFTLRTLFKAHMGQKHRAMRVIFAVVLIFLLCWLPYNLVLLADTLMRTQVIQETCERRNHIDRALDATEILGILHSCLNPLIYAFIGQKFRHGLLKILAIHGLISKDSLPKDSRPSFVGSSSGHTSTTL
It counts as cell membranes, Membrane. As to conditions: cho-k1.

Assay [9] deals with Adenosine receptor A2a (Homo sapiens, UniProt P29274). The experiment in a line: DRUGMATRIX: Adenosine A2A radioligand binding (ligand: […]). It counts as cell membranes, HEK293, Membrane. As to conditions: hek293; Not Active = under 50% inhibition at 10 µM.
Assay [10] in a line: DRUGMATRIX: Phosphodiesterase PDE3 enzyme inhibition (substrate: [3H]cAMP + cAMP). It counts as tissue-based, Homo sapiens. The following applies: platelet; Not Active = under 50% inhibition at 10 µM.
Assay [11] in a line: DRUGMATRIX: Interleukin IL-1 radioligand binding (ligand: [125I] interleukin 1beta). As to conditions: nih3t3; Not Active = under 50% inhibition at 10 µM. It counts as cell membranes, Membrane.
The nature of assay [12]: DRUGMATRIX: ATPase, Na+/K+ enzyme inhibition (substrate: ATP). Type of assay: tissue-based, Sus scrofa, Heart. The following applies: Not Active = under 50% inhibition at 10 µM.

Where a SMILES comes first, the peptide text is derived from it. Bridges are numbered along the chain shown (N, C = ends). [ ]: non-standard residue; d: D form. The star is where a group is joined. Ileψ(thiazoline)Cys = CC[C@H](C)[C@H](N)C1=N[C@H](C(=O)*)CS1; dOrn = NCCC[C@@H](N)C(=O)O

A word on the IC50: it is the concentration at which inhibition is half-maximal.

Kappa-type opioid receptor, sequence (P41145 whole entry): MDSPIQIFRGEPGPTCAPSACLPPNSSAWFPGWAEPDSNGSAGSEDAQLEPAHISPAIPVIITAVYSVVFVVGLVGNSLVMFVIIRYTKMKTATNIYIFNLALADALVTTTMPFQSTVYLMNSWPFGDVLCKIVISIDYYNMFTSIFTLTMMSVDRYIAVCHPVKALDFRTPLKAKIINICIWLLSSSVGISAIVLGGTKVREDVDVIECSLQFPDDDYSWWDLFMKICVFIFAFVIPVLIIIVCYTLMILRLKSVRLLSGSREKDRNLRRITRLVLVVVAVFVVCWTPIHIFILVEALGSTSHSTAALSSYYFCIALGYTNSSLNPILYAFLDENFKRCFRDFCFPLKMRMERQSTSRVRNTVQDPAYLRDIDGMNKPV
Delta-type opioid receptor, sequence (P41143 whole entry): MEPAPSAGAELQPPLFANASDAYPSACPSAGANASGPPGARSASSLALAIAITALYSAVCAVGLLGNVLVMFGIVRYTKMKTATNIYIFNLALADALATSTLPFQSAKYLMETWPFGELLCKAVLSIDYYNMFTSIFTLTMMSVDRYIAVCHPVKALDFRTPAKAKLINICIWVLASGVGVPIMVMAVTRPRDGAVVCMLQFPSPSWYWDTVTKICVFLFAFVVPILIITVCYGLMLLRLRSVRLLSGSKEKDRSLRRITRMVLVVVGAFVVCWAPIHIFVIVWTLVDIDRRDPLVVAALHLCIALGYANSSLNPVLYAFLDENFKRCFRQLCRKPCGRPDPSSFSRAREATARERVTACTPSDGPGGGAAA
Adenosine receptor A2a, sequence (P29274 whole entry): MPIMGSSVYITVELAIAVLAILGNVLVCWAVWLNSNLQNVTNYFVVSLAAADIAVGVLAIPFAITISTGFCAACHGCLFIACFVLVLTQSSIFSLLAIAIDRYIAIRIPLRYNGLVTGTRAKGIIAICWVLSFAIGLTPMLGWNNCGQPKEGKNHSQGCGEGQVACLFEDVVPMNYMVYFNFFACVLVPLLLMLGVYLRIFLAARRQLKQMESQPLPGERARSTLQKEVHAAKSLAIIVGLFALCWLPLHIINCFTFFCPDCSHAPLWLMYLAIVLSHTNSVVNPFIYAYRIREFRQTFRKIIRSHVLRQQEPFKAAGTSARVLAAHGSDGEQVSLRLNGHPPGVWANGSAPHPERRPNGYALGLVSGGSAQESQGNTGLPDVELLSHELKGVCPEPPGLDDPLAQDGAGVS
Substance-P receptor, sequence (P25103 whole entry): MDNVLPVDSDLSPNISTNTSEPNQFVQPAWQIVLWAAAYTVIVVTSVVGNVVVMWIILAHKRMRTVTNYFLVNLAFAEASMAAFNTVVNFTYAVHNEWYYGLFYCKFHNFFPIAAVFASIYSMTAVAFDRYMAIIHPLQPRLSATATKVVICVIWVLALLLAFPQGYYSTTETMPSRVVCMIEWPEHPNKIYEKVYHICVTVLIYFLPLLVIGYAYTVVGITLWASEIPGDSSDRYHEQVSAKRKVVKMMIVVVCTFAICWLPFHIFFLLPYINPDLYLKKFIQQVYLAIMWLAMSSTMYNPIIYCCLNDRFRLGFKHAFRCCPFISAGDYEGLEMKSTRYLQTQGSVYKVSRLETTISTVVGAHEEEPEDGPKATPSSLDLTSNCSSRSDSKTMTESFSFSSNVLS

For the compound `CC(/C=C1\SC(=S)N(CC(=O)O)C1=O)=C\c1ccccc1`, the IC50 result in assay [1], in assay [2], in assay [3], in [4], in [5] and in assay [6] was “Not Active” each time. For the same compound, the IC50 entry in assay [7], in assay [8], in [9], in assay [10], in assay [11] and in assay [12] was “Not Active” in each case. Also, the Ki result in [5], in assay [6], in assay [7], in assay [10], in assay [11] and in assay [12] was “Not Active” in each case.
Regarding `CCCCCCCCCc1ccc(O)cc1` [4-NONYLPHENOL], the IC50 result in assay [2], in assay [3], in assay [4], in assay [5], in assay [6] and in assay [7] was “Not Active” each time. Moreover, the IC50 result in [8], in [9], in [10], in assay [11] and in assay [12] was “Not Active” throughout. For the same compound, the Ki entry in [5], in assay [6], in assay [7], in assay [10], in assay [11] and in [12] was “Not Active” each time.
As for `Cc1[nH]cnc1CN1CCc2c(c3ccccc3n2C)C1=O` [ALOSETRON], the IC50 entry in assay [1], in assay [2], in assay [3], in [4], in assay [5] and in assay [6] was “Not Active” each time. In addition, the IC50 entry in assay [7], in [8], in [9], in assay [10], in assay [11] and in assay [12] was “Not Active” in each case. For the same compound, the Ki entry in [5], in [6], in [7], in [10], in assay [11] and in assay [12] was “Not Active” each time.
As for `CC1(C)S[C@@H]2[C@H](NC(=O)[C@H](N)c3ccc(O)cc3)C(=O)N2[C@H]1C(=O)O` [AMOXICILLIN], the IC50 result in [1], in assay [2], in assay [3], in [4], in assay [5] and in assay [6] was “Not Active” in each case. In addition, the half-maximal inhibitory concentration (IC50) entry in [7], in [8], in assay [9], in assay [10], in assay [11] and in assay [12] was “Not Active” in each case. The Ki result in [5], in [6], in assay [7], in [10], in assay [11] and in [12] was “Not Active” each time.
For `N=C(N)NCCCCNC(=N)N.O=S(=O)(O)O` [ARCAINE SULFATE], the IC50 entry in assay [1], in assay [2], in [3], in assay [4], in [5] and in assay [6] was “Not Active” in each case. The 50% inhibitory concentration (IC50) result in [7], in assay [8], in assay [9], in assay [10], in assay [11] and in assay [12] was “Not Active” throughout. The Ki result in [5], in assay [6], in assay [7], in assay [10], in assay [11] and in assay [12] was “Not Active” in each case.
Turning to `CC[C@H](C)[C@H](N)C1=N[C@H](C(=O)N[C@@H](CC(C)C)C(=O)N[C@H](CCC(=O)O)C(=O)N[C@H](C(=O)N[C@H]2CCCCNC(=O)[C@H](CC(N)=O)NC(=O)[C@@H](CC(=O)O)NC(=O)[C@H](Cc3cnc[nH]3)NC(=O)[C@@H](Cc3ccccc3)NC(=O)[C@H]([C@@H](C)CC)NC(=O)[C@@H](CCCN)NC2=O)[C@@H](C)CC)CS1` [BACITRACIN] ({Ileψ(thiazoline)Cys}-L[dE]IK[dOrn]I[dF]H[dD]N; lactam 4-C), the IC50 entry in [1], in assay [2], in assay [3], in assay [4], in assay [5] and in [6] was “Not Active” in each case. The IC50 entry in assay [7], in [8], in assay [9], in assay [10], in assay [11] and in assay [12] was “Not Active” throughout. The Ki entry in assay [5], in assay [6], in [7], in assay [10], in assay [11] and in [12] was “Not Active” each time.
Take `CC(=O)O[C@]1(C(C)=O)CC[C@H]2[C@@H]3C=C(Cl)C4=CC(=O)CC[C@]4(C)[C@H]3CC[C@@]21C` [CHLORMADINONE ACETATE]: the IC50 result in assay [1], in assay [2], in assay [3], in [4], in assay [5] and in [6] was “Not Active” in each case. The IC50 result was “Not Active” in assay [7]; “Not Active” in assay [8]; “Not Active” in [9]; “Not Active” in assay [10]; “Not Active” in assay [11]; 4.57 µM in assay [12] (read-out: IC50). The Ki result in assay [5], in [6], in assay [7], in assay [10] and in [11] was “Not Active” throughout.
In the case of `C[C@]12CCC(=O)C=C1CC[C@@H]1[C@@H]2C(=O)C[C@@]2(C)[C@H]1CC[C@]2(O)C(=O)CO` [CORTISONE], the 50% inhibitory concentration (IC50) result in assay [1], in assay [2], in assay [3], in assay [4], in [5] and in assay [6] was “Not Active” each time. Further, the IC50 result in assay [7], in [8], in [9], in assay [10], in assay [11] and in [12] was “Not Active” throughout. The Ki entry in assay [5], in assay [6], in assay [7], in [10], in assay [11] and in assay [12] was “Not Active” throughout.

Source of the values: ChEMBL document CHEMBL1909046, “DrugMatrix in vitro pharmacology data”.
